Entries after “also recorded” stand apart in the source; their conditions may differ. Where two headings read alike, the source gives them in different places.
Key:
TbrAK [1] = molecular target: T1, TbrAK (Trypanosoma brucei rhodesiense, UniProt Q584S0); assay: Thermal stability assay (thermal unfolding by CD spectroscopy); type: binding; conditions: for Tm ± SD: TbrAK 13 µM, apo TbrAK 43.1±0.4, average of three experiments; for increase of TbrAK melting point when compound 1 was added: 50 µM
Experimental: Thermal unfolding of TbrAK was studied by CD spectroscopy as outlined elsewhere. […] TbrAK in a buffer containing 20 mM Hepes and 150 mM NaCl (pH 7.0) was kept constant at a final concentration of 0.5 mg/ml (13 µM). […] For evaluation of the CD spectra, the buffer spectrum was subtracted from the protein CD spectrum. All thermal unfolding curves were fitted to a two-state model that had been published recently. The mean of three independent experiments is reported.

TbrAK [2] = molecular target: T1, TbrAK; assay: Isothermal titration calorimetry (ITC); type: binding
Experimental: Binding affinity constants for adenosine and ATP were determined using isothermal titration calorimetry (ITC). To this end, TbrAK was dialyzed into a buffer consisting of 20 mM Tris, 150 mM NaCl, and 5% glycerol (pH 7.5) and used at concentrations around 90 µM. The ligands were dissolved directly into the dialysis buffer to give a final concentration of around 2 mM. All solutions were filtered and thoroughly degassed before use. A typical titration experiment consisted of a first control injection of 1 µl followed by 50 to 60 injections, each of 5 µl (20 s duration), using a 4 min interval. Raw data were collected, corrected for ligand heats of dilution, integrated and fitted to the appropriate binding model using the Microcal Origin software supplied with the instrument. The measurements were performed in duplicate.

TbrAK [3] = molecular target: T1, TbrAK; conditions: ITC; cited from earlier work
[4] = design: method as in PMID 19707572, PMID 17949068; conditions: cited from earlier work
[5] = molecular target: TbrAK (adenosine kinase of T. b. rhodesiense) (Trypanosoma brucei rhodesiense, UniProt Q584S0); assay: TbrAK activity assay (HPLC, ADP/ATP ratio); type: biochemical; conditions: n.e. = no effect; for efficacy increase (TbrAK activation): efficacy of TbrAK in absence of compound taken as reference; for EC50 / potency EC50 (TbrAK activation): compound range 1–2000 µM, average of three experiments, neither activator nor inhibitor; for EC50: read-out: potency EC50 (TbrAK activation)
Sequence of TbrAK (adenosine kinase of T. b. rhodesiense) (Q584S0 entry or part of it): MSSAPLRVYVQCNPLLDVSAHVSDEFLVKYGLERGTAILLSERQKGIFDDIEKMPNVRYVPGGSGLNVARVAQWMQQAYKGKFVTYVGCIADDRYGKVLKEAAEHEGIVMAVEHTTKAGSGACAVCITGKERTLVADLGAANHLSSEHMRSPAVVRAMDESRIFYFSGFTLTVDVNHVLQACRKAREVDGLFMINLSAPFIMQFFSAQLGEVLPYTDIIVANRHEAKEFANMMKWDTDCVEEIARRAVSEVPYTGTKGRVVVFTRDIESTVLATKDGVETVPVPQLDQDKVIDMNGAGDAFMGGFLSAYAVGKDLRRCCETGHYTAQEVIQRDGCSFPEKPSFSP
Experimental: The activation potential of a series of compound 1 derivatives (compounds 2–7) was measured using a recently developed HPLC method. The resulting ADP/ATP ratios were calculated and used as a measure of activity. For comparative reasons the activity recorded in absence of compound was set to 100%. The mean of three independent measurements is reported.

[6] = system: Trypanosoma brucei rhodesiense; design: method as in PMID 19707572, PMID 17949068; conditions: read-out: IC50 towards Trypanosoma brucei rhodesiense; cited from earlier work
[7] = AP5A, adenosine, ATP at 500 µM, compound 1 at 50 µM

T1 sequence (Q584S0 entry or part of it): as above

SMILES	Tm ± SD (TbrAK [1]; [7]) [°C]	efficacy increase (TbrAK activation) [5]	EC50 [5] [µM]	further results
Nc1ncnc2c1ncn2[C@@H]1O[C@H](COP(=O)(O)OP(=O)(O)OP(=O)(O)OP(=O)(O)OP(=O)(O)OC[C@H]2O[C@@H](n3cnc4c(N)ncnc43)[C@H](O)[C@@H]2O)[C@@H](O)[C@H]1O [AP5A, P^1,P^5-di(adenosine-5′)-pentaphosphate]	50.5±0.2			Δ Tm (TbrAK [1]; shift versus apo TbrAK (43.1°C), AP5A, adenosine, ATP at 500 µM, compound 1 at 50 µM): 7.4 °C
Nc1ncnc2c1ncn2[C@@H]1O[C@H](COP(=O)(O)OP(=O)(O)OP(=O)(O)O)[C@@H](O)[C@H]1O [ATP, adenosine triphosphate]	42.8±0.1			
Nc1ncnc2c1ncn2[C@@H]1O[C@H](CO)[C@@H](O)[C@H]1O [adenosine]	50.7±0.2			Kd (TbrAK [2]): 1.3 ± 0.3 µM; n (molar ratio, single site) (TbrAK [2]; in presence of compound 1 (150 µM)): 0.9±0.1; ΔHbind, single binding site (TbrAK [2]; in presence of compound 1 (150 µM), single-site binding model): -15.5 ± 0.2 kcal/mol; Kd (TbrAK [2]; read-out: KD, low affinity binding site, two-sites non-interacting binding model, mean of two experiments): 27.6 ± 1.1 µM; n1 (molar ratio, high affinity site) (TbrAK [2]; two-sites model): 0.9±0.1; n2 (molar ratio, low affinity site) (TbrAK [2]; two-sites model): 0.8±0.1
c1ccc(Oc2ccc(-c3cc(N4CCOCC4)[nH]n3)cc2)cc1 [compound 1, 4-[5-(4-phenoxyphenyl)-2H-pyrazol-3-yl]morpholine]	47.9±0.1	3.5 fold		increase of TbrAK melting point when compound 1 was added (TbrAK [1]; in presence of adenosine): 0.4 °C; increase of TbrAK melting point when compound 1 was added (TbrAK [1]; in presence of both adenosine and ATP): 0.7 °C; number of binding sites on TbrAK (TbrAK [3]): two binding sites; cytotoxicity [4]: low cytotoxicity; IC50 [6]: 1000 nM
c1ccc(Oc2ccc(-c3cc(C4CCOCC4)[nH]n3)cc2)cc1 [compound 2, 3-(4-phenoxyphenyl)-5-(tetrahydropyran-4-yl)-1H-pyrazole]		2.0 fold	25.4	
CCc1ccc(-c2cc(C3CCOCC3)[nH]n2)cc1 [compound 3, 3-(4-ethylphenyl)-5-(tetrahydropyran-4-yl)-1H-pyrazole]		2.5 fold	168	
Clc1ccc(-c2cc(N3CCOCC3)[nH]n2)cc1 [compound 4, 4-[5-(4-chlorophenyl)-2H-pyrazol-3-yl]morpholine]		2.0 fold	135	
c1ccc(Oc2ccc(-c3cc(CN4CCOCC4)[nH]n3)cc2)cc1 [compound 5, 4-[5-(4-phenoxyphenyl)-2H-pyrazol-3-ylmethyl]morpholine]		1.5 fold	195	
c1ccc(Oc2ccc(-c3cc(N4CCOCC4)on3)cc2)cc1 [compound 6, 4-[3-(4-phenoxyphenyl)isoxazol-5-yl]morpholine]		loses all activation capacity; also recorded: n.e. ^c		potency EC50 (TbrAK activation) [5]: n.e. ^c
O=[N+]([O-])c1ccc(Oc2ccc(-c3cc(N4CCOCC4)[nH]n3)cc2)cc1 [compound 7, 4-{5-[4-(4-nitrophenoxy)phenyl]-2H-pyrazol-3-yl}morpholine]		loses all activation capacity; also recorded: n.e. ^c		potency EC50 (TbrAK activation) [5]: n.e.

From paper PMC3101181, “Crystal Structures of T. b. rhodesiense Adenosine Kinase Complexed with Inhibitor and Activator: Implications for Catalysis and Hyperactivation” (PLoS Neglected Tropical Diseases, 2011)
